Tested on: P. viticola
Assay: Protection of greenhouse vine plants against downy mildew (sporulating leaf area, leaf disks, 6 dpi)
Type: in vivo, Plasmopara viticola
Conditions: A1 1 g/L, Pip 0.1 mM, alone or combined, FIG. 5
Method: Grapevine (V. vinifera cv. Marselan) herbaceous cuttings were grown in individual pots (10×7×7 cm) containing a mixture of peat and perlite (4:1, vol/vol) in a greenhouse at 25±4 and 18±7° C. (day and night, respectively) until they developed 6-8 leaves. Artificial illumination was supplemented when the natural light was less than 200 μmol. m.^−2 s^−1 during the 16 h light period. Plants were watered with a fertilization solution (Topfert2 Plantin. France).
Alginates A1, A2, A3 with a degree of polymerization (DP) of 491, 228, 355 respectively were used. They were prepared at 1, 2 and 4 g/L in ultrapure water and applied to both the upper and lower faces of leaves until the point of run-off using a manual sprayer. Plants were maintained in the greenhouse in the conditions described above. Ultrapure water was used as negative control and sprayed in the same manner. […]
Briefly, 6 days post-inoculation (dpi), leaf disks were punched out and placed with the abaxial side uppermost, on a moist Whatman paper, in a closed plastic box. […] Disease intensity was assessed by measuring the leaf area covered by the pathogen sporulation using a “macro” developed for the image analysis Visilog 6.9 software (Noesis, France; Kim Khiook et al., 2013) and the disease reduction rate is calculated as follows: (1−(treated sporulating area/control sporulating area))×100. […]

`O=C(O)C1CCCCN1` (stereo not shown) [Pip, pipecolic acid] was tested. Which “rate protection against P. viticola” value did it give?
The value was “around 35%”.

Source: patent US20230000088A1, “USE OF ALGINATES OLIGOMERS TO IMPROVE PLANT PROTECTION AGAINST PATHOGENS” (Université de Bourgogne, priority 2019, published 2023)
